Results published in patent US12458614B2, “Therapeutic agents for improved mobility and cognitive function and for treating neurodegenerative diseases and lysosomal storage disorders” (priority 2017, dated 2025).
“Also recorded” adds a separate entry of the source.

Experiments:
[1] = test system: rat model of an acute unilateral labyrinthectomy; conditions: acute unilateral labyrinthectomy (Gunther 2015); cited from earlier work
[2] = test system: patient with Lewy Body dementia; assay: Case study, Lewy Body dementia; assay type: in vivo, human; conditions: Levodopa 100 mg 4× daily and Quetiapin 25 mg at night
Experimental: The patient started taking acetyl-leucine (3 g/day for one week; 5 g/day thereafter) and was evaluated after four weeks. […] Medication was reduced to 3 g/day, and the patient was instructed to stop medication about two weeks later.

[3] = test system: patients with downbeat nystagmus; assay: Case studies, downbeat nystagmus; assay type: in vivo, human; conditions: downbeat nystagmus Patients 1 (10 mg twice daily, four weeks) and 2
[4] = test system: patients with multiple system atrophy Parkinson type (MSA-P); assay: Case studies, multiple system atrophy Parkinson type; assay type: in vivo, human; conditions: MSA-P Patient 3
From the text: Medication was stopped. […] The patient evaluated after one month on acetyl-DL-leucine. […] Episodes of mental confusion completely disappeared. The patient's cognitive structure seemed much clearer and straighter. […] The patient's spouse supported continuing the medication.

[5] = test system: patient with progressive gait disorder; assay: Case study Example 26, quantitative gait analysis; assay type: in vivo, human; conditions: treatment with L-Dopa
[6] = test system: patients with multiple system atrophy Parkinson type (MSA-P); assay: Case studies, multiple system atrophy Parkinson type; assay type: in vivo, human; conditions: MSA-P Patient 1, 100/25 mg 3× daily
[7] = test system: patient with frontotemporal dementia with parkinsonism; assay: Case study, frontotemporal dementia with parkinsonism; assay type: in vivo, human; conditions: treatment with L-Dopa and Ropinirol
From the text: After approximately one month of acetyl-leucine treatment, medication was stopped and the patient was re-examined 13 days later.

[8] = test system: person with balance disorder/senile gait disorder; assay: Case study Example 23; assay type: in vivo, human; conditions: treatment with L-Dopa
[9] = test system: patients with progressive supranuclear palsy; assay: Case studies, progressive supranuclear palsy; assay type: in vivo, human; conditions: individual PSP patients 1 to 4
Experimental: After 27 days of acetyl-leucine treatment, medication was stopped and the patient was re-examined 60 days later. […] Gait analysis was performed before treatment commenced. After 17 days of treatment, medication was stopped and the patient was re-examined 4 days later. […] Gait analysis was performed before treatment commenced. After three weeks of treatment, medication was stopped and the patient was re-examined.

[10] = test system: patient with corticobasal syndrome; assay: Case study, corticobasal syndrome; assay type: in vivo, human; conditions: treatment with L-Dopa
Experimental: Gait analysis was performed before treatment commenced.

[11] = test system: patients with amyotrophic lateral sclerosis (ALS); assay: Case studies, amyotrophic lateral sclerosis; assay type: in vivo, human; conditions: ALS Patient 1
From the text: The results were documented by video.

CC(=O)N[C@@H](CC(C)C)C(=O)O [acetyl-L-leucine]
postural compensation [1]: significant effect

OCCOCCN1CCN(C2=Nc3ccccc3Sc3ccccc32)CC1 [Quetiapin]
Response to prior medication [2]: improved the symptomatology

Nc1ccncc1 [4-aminopyridine]
Benefit of prior medication [3]: did not give rise to any benefit
Benefit of prior medication ([3]; listed as Fampyra®): did not benefit

N[C@@H](Cc1ccc(O)c(O)c1)C(=O)O [L-Dopa]
Tolerability of Levodopa therapy [4]: suspended due to side effects
Response to prior medication [5]: No improvement
Response to prior medication [2]: improved the symptomatology
Levodopa response [6]: discreet Levodopa response
Response to prior medication [7]: little improvement
Response to prior medication [8]: no improvement
Levodopa response [9]: little improvement
Levodopa response ([9]; listed as levodopa): no levodopa response; also recorded: slight levodopa response
Response to prior medication [10]: no improvement

Nc1nc2ccc(OC(F)(F)F)cc2s1 [Riluzol]
Clinical symptomatology under prior medication [11]: remained unchanged

CCCN(CCC)CCc1cccc2c1CC(=O)N2 [Ropinirol]
Response to prior medication [7]: little improvement
